Source: patent publication US11834453B2, “Substituted pyrimido[5,4-d]pyrimidines as HER2 inhibitors” (Array BioPharma Inc., priority 2020, dated 2023)
pIC50: −log10 of the molar value. Where two headings read alike, the source gives them in different places.

What was measured:
[1] = target: ErbB2 with Exon 20 YVMA insertion (HER2-YVMA) (Homo sapiens (Human), UniProt P04626, INS775YVMA); test: Cellular phosphorylation assay, constitutive ErbB2 phosphorylation (Y1196) in engineered NIH 3T3 cells, Assay 4; type: cell-based
Chain of ErbB2 with Exon 20 YVMA insertion (HER2-YVMA) (P04626 other isoform, or with tags, fused parts or gaps ins YVMA behind 775): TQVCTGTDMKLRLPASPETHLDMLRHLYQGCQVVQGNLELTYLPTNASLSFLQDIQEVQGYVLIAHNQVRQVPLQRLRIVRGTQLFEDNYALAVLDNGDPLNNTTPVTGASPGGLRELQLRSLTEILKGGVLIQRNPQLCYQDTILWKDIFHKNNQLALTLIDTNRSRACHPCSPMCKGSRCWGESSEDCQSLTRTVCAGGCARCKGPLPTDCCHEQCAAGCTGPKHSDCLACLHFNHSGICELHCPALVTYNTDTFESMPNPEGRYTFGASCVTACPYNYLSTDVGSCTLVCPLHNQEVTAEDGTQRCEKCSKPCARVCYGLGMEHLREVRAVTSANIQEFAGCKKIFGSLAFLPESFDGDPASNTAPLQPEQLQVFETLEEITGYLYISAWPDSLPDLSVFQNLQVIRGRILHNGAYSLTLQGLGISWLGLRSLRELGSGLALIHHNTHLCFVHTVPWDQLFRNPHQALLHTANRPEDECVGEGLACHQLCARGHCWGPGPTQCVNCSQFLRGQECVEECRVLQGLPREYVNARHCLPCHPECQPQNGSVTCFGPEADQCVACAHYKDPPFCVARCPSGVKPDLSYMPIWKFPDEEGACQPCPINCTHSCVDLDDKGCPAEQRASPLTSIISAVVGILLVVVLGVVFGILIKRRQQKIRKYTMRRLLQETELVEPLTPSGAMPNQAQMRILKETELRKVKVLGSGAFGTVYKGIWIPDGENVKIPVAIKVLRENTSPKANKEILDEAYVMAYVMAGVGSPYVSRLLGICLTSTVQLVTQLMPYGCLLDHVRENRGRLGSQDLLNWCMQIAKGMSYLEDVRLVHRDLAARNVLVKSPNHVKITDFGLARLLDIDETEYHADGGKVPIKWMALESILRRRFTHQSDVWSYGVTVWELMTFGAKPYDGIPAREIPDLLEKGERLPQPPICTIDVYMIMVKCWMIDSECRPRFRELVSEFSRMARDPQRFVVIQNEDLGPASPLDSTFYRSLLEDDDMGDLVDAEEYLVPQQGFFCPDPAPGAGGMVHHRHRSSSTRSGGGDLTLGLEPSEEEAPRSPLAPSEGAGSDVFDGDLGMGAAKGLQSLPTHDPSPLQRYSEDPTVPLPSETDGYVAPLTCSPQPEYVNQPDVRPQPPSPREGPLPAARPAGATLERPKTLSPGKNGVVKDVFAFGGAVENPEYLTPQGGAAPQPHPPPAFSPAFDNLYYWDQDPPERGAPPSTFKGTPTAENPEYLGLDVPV
Procedure, shortened: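 In-cell Western in NIH 3T3 cells carrying ErbB2 exon 20 YVMA insertion, with no ligand stimulation. One hour compound exposure at 37 °C before fixation and anti-pY1196 plus GAPDH staining with dual-wavelength fluorescence. IC50 derived after GAPDH normalization.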

EGFR wild type (EGFR WT) = EGFR wild type (EGFR WT) (Homo sapiens (Human), UniProt P00533); test: Cellular phosphorylation assay, EGF-stimulated EGFR phosphorylation in engineered NIH 3T3 cells, Phospho-EGFR DuoSet IC ELISA, Assay 5; type: cell-based
Chain of EGFR wild type (EGFR WT) (P00533 25-1210): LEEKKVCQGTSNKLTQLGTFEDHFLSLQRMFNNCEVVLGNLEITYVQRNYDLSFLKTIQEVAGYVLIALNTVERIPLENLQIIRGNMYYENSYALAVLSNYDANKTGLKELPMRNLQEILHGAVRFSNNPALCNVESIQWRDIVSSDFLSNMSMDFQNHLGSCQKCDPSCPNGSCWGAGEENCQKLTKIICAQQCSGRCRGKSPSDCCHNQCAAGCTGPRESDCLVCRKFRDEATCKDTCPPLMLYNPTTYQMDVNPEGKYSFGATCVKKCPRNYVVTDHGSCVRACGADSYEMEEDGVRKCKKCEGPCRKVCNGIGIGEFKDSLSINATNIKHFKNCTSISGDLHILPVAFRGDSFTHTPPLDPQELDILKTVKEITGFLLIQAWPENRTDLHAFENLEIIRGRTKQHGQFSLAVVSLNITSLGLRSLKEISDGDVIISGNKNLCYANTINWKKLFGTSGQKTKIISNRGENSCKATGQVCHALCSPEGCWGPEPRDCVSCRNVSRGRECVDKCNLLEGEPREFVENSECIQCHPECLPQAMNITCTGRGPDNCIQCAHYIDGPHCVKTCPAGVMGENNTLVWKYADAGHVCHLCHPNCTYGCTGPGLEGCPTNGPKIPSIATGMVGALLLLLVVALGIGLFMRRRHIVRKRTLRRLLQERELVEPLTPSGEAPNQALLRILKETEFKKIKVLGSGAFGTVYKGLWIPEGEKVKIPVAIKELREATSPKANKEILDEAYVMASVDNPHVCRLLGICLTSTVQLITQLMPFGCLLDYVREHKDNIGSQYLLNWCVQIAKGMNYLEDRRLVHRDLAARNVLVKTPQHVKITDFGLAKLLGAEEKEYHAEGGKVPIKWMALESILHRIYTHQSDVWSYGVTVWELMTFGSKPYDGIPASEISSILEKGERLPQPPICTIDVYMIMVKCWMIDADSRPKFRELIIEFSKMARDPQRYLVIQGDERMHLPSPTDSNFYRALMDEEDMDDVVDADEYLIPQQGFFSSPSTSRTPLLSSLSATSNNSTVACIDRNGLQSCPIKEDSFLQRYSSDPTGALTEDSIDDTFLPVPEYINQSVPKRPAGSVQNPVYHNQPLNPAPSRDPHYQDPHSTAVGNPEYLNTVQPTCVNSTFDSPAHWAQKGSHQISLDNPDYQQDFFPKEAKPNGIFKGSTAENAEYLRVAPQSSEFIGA
Procedure, shortened: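 Phospho-EGFR ELISA on lysates of engineered NIH 3T3 EGFR WT cells, IC50 derived from concentration curves. Cells plated at 20,000/well overnight, given compound dilutions 1 h at 37 °C, then rEGF 100 ng/ml for a further 10 min before lysis.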

EGFR = EGFR (Homo sapiens (Human), UniProt P00533); test: ErbB enzyme assay (CisBio HTRF KinEASE-TK), Assay 3; type: biochemical
Chain of EGFR (P00533 25-1210): as above
Procedure, shortened: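 Using a time-resolved FRET read-out, tyrosine phosphorylation of 250 nM biotin substrate at 1 mM ATP (pH 7.4, 10 mM MgCl2, 2% DMSO, 22 °C, 30 min) was quantified against DMSO and pre-quenched controls; IC50 taken at 50% of control.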

[2] = target: ErbB2 insYVMA (HER2-YVMA, SEQ ID NO: 2) (Homo sapiens, UniProt P04626, INS775YVMA/P1170A); test: biochemical; conditions: ErbB2 insYVMA enzyme assay; for pIC50: read-out: Assay 1 IC50; for IC50: Assay 1 IC50 (nM)
Chain of ErbB2 insYVMA (HER2-YVMA, SEQ ID NO: 2) (P04626 with tags, fused parts or gaps INS775YVMA/P1170A limits assumed): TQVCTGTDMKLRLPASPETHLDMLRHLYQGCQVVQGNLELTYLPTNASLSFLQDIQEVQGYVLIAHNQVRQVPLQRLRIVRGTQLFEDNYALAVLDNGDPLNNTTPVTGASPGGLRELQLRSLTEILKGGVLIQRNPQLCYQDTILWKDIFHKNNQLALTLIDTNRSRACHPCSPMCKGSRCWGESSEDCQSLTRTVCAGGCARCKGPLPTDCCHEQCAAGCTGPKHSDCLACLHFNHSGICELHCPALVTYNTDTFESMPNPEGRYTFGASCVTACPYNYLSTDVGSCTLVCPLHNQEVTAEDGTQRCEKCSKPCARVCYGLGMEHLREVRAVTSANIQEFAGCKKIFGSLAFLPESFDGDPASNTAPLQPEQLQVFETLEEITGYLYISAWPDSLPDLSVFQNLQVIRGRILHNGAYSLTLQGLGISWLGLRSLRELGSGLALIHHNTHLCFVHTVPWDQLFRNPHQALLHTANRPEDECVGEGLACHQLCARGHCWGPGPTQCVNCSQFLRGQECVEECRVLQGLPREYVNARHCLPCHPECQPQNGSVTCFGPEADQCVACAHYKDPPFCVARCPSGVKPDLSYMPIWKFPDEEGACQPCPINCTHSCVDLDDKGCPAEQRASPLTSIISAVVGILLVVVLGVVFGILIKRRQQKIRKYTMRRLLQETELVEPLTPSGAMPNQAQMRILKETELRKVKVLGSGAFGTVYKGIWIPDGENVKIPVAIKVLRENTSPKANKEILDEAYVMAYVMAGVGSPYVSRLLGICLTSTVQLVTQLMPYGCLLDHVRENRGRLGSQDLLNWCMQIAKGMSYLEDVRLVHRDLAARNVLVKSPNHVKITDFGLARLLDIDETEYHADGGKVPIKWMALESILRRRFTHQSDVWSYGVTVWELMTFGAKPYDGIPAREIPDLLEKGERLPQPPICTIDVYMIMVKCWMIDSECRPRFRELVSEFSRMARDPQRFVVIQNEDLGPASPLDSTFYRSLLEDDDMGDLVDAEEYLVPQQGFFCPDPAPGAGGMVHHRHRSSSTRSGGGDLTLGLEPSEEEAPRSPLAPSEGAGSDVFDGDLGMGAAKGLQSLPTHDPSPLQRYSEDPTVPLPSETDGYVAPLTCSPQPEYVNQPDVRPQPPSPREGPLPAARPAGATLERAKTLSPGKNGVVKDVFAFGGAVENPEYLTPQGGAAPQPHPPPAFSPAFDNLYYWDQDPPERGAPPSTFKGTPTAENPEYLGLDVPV

ErbB2 WT = ErbB2 WT (Homo sapiens (Human), UniProt P04626); test: ErbB enzyme assay (CisBio HTRF KinEASE-TK), Assay 2; type: biochemical
Procedure, shortened: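 Readout is HTRF KinEASE-TK, using Sa-XL665 and cryptate antibody for 1 h at 22 °C, as percent of control between DMSO-only (100) and pre-quenched (0) reactions. The kinase reaction runs 30 min at 22 °C with 1 mM ATP and 250 nM biotinylated TK substrate, in HEPES pH 7.4 with MgCl2 and 2% DMSO.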

| SMILES | pIC50 [1] | pIC50 (EGFR wild type (EGFR WT)) | pIC50 (EGFR) | pIC50 [2] | pIC50 (ErbB2 WT) | IC50 [2] [nM] |
| --- | --- | --- | --- | --- | --- | --- |
| Cc1cc(Nc2ncnc3cnc(N4C[C@H]5COC[C@H]5C4)nc23)ccc1Oc1ccc2c(c1)ncn2C [Example 466] | 7.79 | ≤ 5.30 | ≤ 5.00 | 7.62 | 7.21 |  |
| CN(C)c1ncc2ncnc(Nc3ccc(Oc4ccn5ncnc5c4)c(Cl)c3)c2n1 [Example 396] | 7.62 | ≤ 5.30 | ≤ 5.00 | 8.31 | 8.02 |  |
| Cc1c(Oc2ccc3c(c2)ncn3C)ccc(Nc2ncnc3cnc(N(C)C)nc23)c1F [Example 71, N8-(2-fluoro-3-methyl-4-((1-methyl-1H-benzo[d]imidazol-5-yl)oxy)phenyl)-N2,N2-dimethylpyrimido[5,4-d]pyrimidine-2,8-diamine 2,2,2-trifluoroacetate] | 7.12 | ≤ 5.30 | ≤ 5.00 |  | 6.52 | 70.2 |
| Cc1cc(Nc2ncnc3cnc(N4CC5(C4)CC(O)(C(F)(F)F)C5)nc23)ccc1Oc1ccc2c(c1)ncn2C [Example 487] | 7.31 | ≤ 5.30 | ≤ 5.00 | 7.21 | 7.34 |  |
| Cc1cc(Nc2ncnc3cnc(OCC4(F)CN(C)C4)nc23)ccc1Oc1ccc2c(c1)ncn2C [Example 292] | 6.88 | ≤ 5.30 | ≤ 5.00 | 6.98 | 6.25 |  |
| Cc1cc(Nc2ncnc3cnc(NC4CC(F)(F)C4)nc23)ccc1Oc1ccc2c(c1)ncn2C [Example 30, N2-(3,3-difluorocyclobutyl)-N8-(3-methyl-4-((1-methyl-1H-benzo[d]imidazol-5-yl)oxy)phenyl)pyrimido[5,4-d]pyrimidine-2,8-diamine] | 6.78 | ≤ 5.30 | ≤ 5.00 | 6.98 | 6.71 |  |
| Cc1cc(Nc2ncnc3cnc(N(C)C4COC4)nc23)ccc1Oc1ccn2ncnc2c1 [Example 403] | 6.47 | ≤ 5.30 | 5.18 | 7.78 | 7.92 |  |
| Clc1cc(Nc2ncnc3cnc(N4CCN5CCOC[C@@H]5C4)nc23)ccc1Oc1ccn2ncnc2c1 [Example 431] | 6.64 | ≤ 5.30 | ≤ 5.00 | 7.66 | 7.20 |  |
| Clc1cc(Nc2ncnc3cnc(N4CC[C@@H]5COC[C@H]54)nc23)ccc1Oc1ccn2ncnc2c1 [Example 376] | 7.51 | ≤ 5.30 | 5.92 | 7.88 | 7.93 |  |
| Cc1cc(Nc2ncnc3cnc(N4CCC(C)(O)CC4)nc23)c(Cl)cc1Oc1ccc2c(c1)ncn2C [Example 482] | 6.64 | ≤ 5.30 | ≤ 5.00 | 7.12 | 6.35 |  |
| CCN(CC(C)(C)O)c1ncc2ncnc(Nc3ccc(Oc4ccc5c(c4)ncn5C)c(C)c3)c2n1 [Example 478] | 6.96 | ≤ 5.30 | ≤ 5.00 | 7.55 | 7.38 |  |
| Clc1cc(Nc2ncnc3cnc(N4CCC5COCC54)nc23)ccc1Oc1ccn2ncnc2c1 (stereo not shown) [Example 377] | 7.24 | ≤ 5.30 | 5.85 | 8.12 | 7.83 |  |
| Cc1cc(Nc2ncnc3cnc(N4CCOC[C@H]4C)nc23)ccc1Oc1ccc2c(c1)ncn2C [Example 257] | 8.03 | ≤ 5.30 | 5.48 | 7.70 | 8.09 |  |
| Cc1cc(Nc2ncnc3cnc(N4CCC[C@@H]5COC[C@@H]54)nc23)ccc1Oc1ccc2c(c1)ncn2C [Example 432] | 7.10 | ≤ 5.30 | ≤ 5.00 | 7.54 | 7.15 |  |
| Cc1cc(Nc2ncnc3cnc(NC4=NC(C)(C)CO4)nc23)ccc1Oc1ccn2ncnc2c1 [Example 362] | 5.90 | ≤ 5.30 | 5.47 | 7.58 | 7.49 |  |
| Clc1cc(Nc2ncnc3cnc(N4C[C@@H]5[C@H](C4)[C@@H]4CC[C@H]5O4)nc23)ccc1Oc1ccn2ncnc2c1 [Example 399] | 6.72 | ≤ 5.30 | ≤ 5.00 | 7.55 | 7.54 |  |
| Cn1cnc2cc(Oc3ccc(Nc4ncnc5cnc(N6CC7CCC(C6)O7)nc45)cc3Cl)ccc21 [Example 447] | 7.91 | ≤ 5.30 | ≤ 5.00 |  | 7.04 | 46.8 |
| Cc1cc(Nc2ncnc3cnc(N4CCN[C@@H](C)C4)nc23)ccc1Oc1ccc2c(c1)ncn2C [Example 278] | 7.87 | ≤ 5.30 | 5.02 | 7.66 | 7.37 |  |
| Cc1cc(Nc2ncnc3cnc(N4CCN5C(=O)COC[C@H]5C4)nc23)ccc1Oc1ccc2c(c1)ncn2C [Example 346] | 7.69 | ≤ 5.30 | ≤ 5.00 | 7.40 | 7.22 |  |
| CC1(C)CN(c2ncc3ncnc(Nc4ccc(Oc5ccn6ncnc6c5)c(Cl)c4)c3n2)C[C@H]1O [Example 339] | 6.23 | ≤ 5.30 | 5.28 | 7.33 | 7.15 |  |
| Cc1cc(Nc2ncnc3cnc(N4CCN[C@H](C)C4)nc23)ccc1Oc1ccn2ncnc2c1 [Example 352] | 6.83 | ≤ 5.30 | ≤ 5.00 | 7.43 | 6.88 |  |
| Cc1c(Oc2ccc3c(c2)ncn3C)ccc(Nc2ncnc3cnc(N4CC5CC5(O)C4)nc23)c1F (stereo not shown) [Example 347] | 6.61 | ≤ 5.30 | ≤ 5.00 | 7.10 | 6.96 |  |
| Cc1c(Oc2ccc3c(c2)ncn3C)ccc(Nc2ncnc3cnc(N4CC[C@H]4C(C)(C)O)nc23)c1F [Example 453] | 6.42 | ≤ 5.30 | ≤ 5.00 | 7.19 | 6.32 |  |
| Cc1cc(Nc2ncnc3cnc(N4CCOCC4)nc23)ccc1Oc1ccc2csnc2c1 [Example 243] | 6.76 | 5.52 | 5.60 | 7.39 | 6.58 |  |
| Cc1cc(Nc2ncnc3cnc(N4C[C@@H]5[C@H](C4)[C@H]4CC[C@@H]5O4)nc23)ccc1Oc1ccc2c(c1)ncn2C [Example 380] | 7.36 | ≤ 5.30 | ≤ 5.00 | 7.33 | 7.19 |  |
| Cc1cc(Nc2ncnc3cnc(O[C@H]4CNCC4(F)F)nc23)ccc1Oc1ccc2c(c1)ncn2C [Example 303] | 6.59 | ≤ 5.30 | ≤ 5.00 | 7.19 | 6.40 |  |
| C[C@H]1CN(c2ncc3ncnc(Nc4ccc(Oc5ccn6ncnc6c5)c(Cl)c4)c3n2)C[C@@H]1O [Example 340] | 6.78 | ≤ 5.30 | 5.40 | 7.77 | 7.39 |  |
| Cc1cc(Nc2ncnc3cnc(N4C[C@@H](O)C5(CC5)C4)nc23)c(Cl)cc1Oc1ccc2c(c1)ncn2C [Example 488] | 6.93 | ≤ 5.30 | ≤ 5.00 | 7.13 | 6.76 |  |
| Cc1cc(Nc2ncnc3cnc(N4CCOC5CC54)nc23)ccc1Oc1ccn2ncnc2c1 (stereo not shown) [Example 382] | 6.40 | ≤ 5.30 | 5.22 | 7.46 | 7.16 |  |
